Assay results: US20110300246A1, “Herbal Extracts for Treatment of Diabetic Complications and Oxidative Stress” (priority 2010, published 2011)

Columns and labels:
[1] = system: STZ-diabetic rats; assay: Renal oxidative stress (SOD activity, MDA) in STZ-diabetic rats; format: in vivo, rat; conditions: renal cortical tissue, 12 weeks, mean ± SD, n=8
Experimental: (§1) Male Sprague-Dawley male rats, weighing 200-250 g, aged 8-10 weeks, were used. Diabetes was induced by administration of streptozotocin (STZ, Sigma-Aldrich, USA) in 0.1 mol/L sodium citrate (pH 4.5) at a dose of 55 mg/kg intraperitoneally. After 48 hours injection, blood glucose levels of the animals were examined using glucose meter. The induction of diabetes was confirmed when the blood glucose level was greater than 300 mg/dl. Animals were maintained in diabetic conditions for 2 weeks without any treatment and blood glucose was determined every week to ensure the subsistence of diabetes. Animals with uncertain blood glucose levels or blood glucose exceeding 600 mg/dl were excluded from the study.
HEM was suspended in 1% carboxymethylcellulose (CMC) before use. Aminogunidine was dissolved in water first and then added into 1% CMC before use. […] The diabetes-induced and the normal control groups consisted of 8 animals of each. […]
For measurements of SOD activity and MDA contents, the renal cortical tissues were homogenized in a buffer solution (0.25 M sucrose, 0.5 mM EDTA, 50 mM HEPES, protease inhibitors) on ice and centrifuged at 4° C. at 12,000 rpm for 20 min. The supernatants were collected and analyzed with corresponding assay kits (Nanjing Jiancheng Shengwu Yanjiu Suo, Nanjing, China) according to the manufacturer's instructions, […]

[2] = system: STZ-diabetic rats; assay: AGE levels in the kidney cortex of STZ-diabetic rats; format: in vivo, rat; conditions: 12 weeks, mean ± SD, n=8
Experimental: as §1
(§2) HEM was suspended in 1% carboxymethylcellulose (CMC) before use. Aminogunidine was dissolved in water first and then added into 1% CMC before use. […] The diabetes-induced and the normal control groups consisted of 8 animals of each. The initial body weights and blood glucose levels of the diabetic animals were similar among the three groups. […] The normal control group and the diabetic control group were administered with equivalent volume of CMC daily for 12 weeks. The standard rat diet and water were available ad libitum throughout the entire treatment period. […]

[3] = system: STZ-diabetic rats; assay: Body weight gain and general well-being in STZ-diabetic rats, 12 weeks treatment; format: in vivo, rat
Experimental: as §1
HEM was suspended in 1% carboxymethylcellulose (CMC) before use. Aminogunidine was dissolved in water first and then added into 1% CMC before use. […] The diabetes-induced and the normal control groups consisted of 8 animals of each. The initial body weights and blood glucose levels of the diabetic animals were similar among the three groups. […] The normal control group and the diabetic control group were administered with equivalent volume of CMC daily for 12 weeks. […]
The general behavioral status of the animals (i.e. locomotor activity, alertness to environmental changes) was observed every day, and the body weight and food intake were measured weekly.

[4] = system: bovine serum albumin (BSA)-AGEs formation; assay: Glucose and methylglyoxal induced BSA-AGEs formation in vitro (fluorescence); format: biochemical; conditions: BSA + 2 mM methylglyoxal + 200 mM glucose, 37° C., 7 days
Experimental: Glucose and Methylglyoxal induced bovine serum albumin (BSA)-AGEs formation is used to test the inhibitory effects of the inventive single herbal extract and mixed herbal extracts on the formation of AGEs in vitro.
Methods: As a protein source, BSA (Sigma-Aldrich, St. Louis, Mo., USA) was dissolved in 50 mM phosphate buffer (pH 7.4) to a concentration of 10 mg/ml. As a sugar source, a mixture of 2 mM methylglyoxal and 200 mM glucose (sigma-Aldrich, St. Louis, Mo., USA) was used. This sugar mixture was added to the prepared BSA solution for use in tests. […] Aminoguanidine (AG), a positive control drug, was tested in the same manner except that AG was dissolved in distilled water. As a negative control group, a culture consisting of BSA, the sugar mixture and 10% Tween80 was cultured. As blanks to the control and test groups, the materials for the test group and the materials for the control group were used after preparation without incubation. Five samples for each group were used to reduce errors to the lowest possible extent. After 7 days incubation, the amounts of AGEs in test samples were determined by measuring the fluorescence at an emission wavelength of 440 nm and an excitation wavelength at 370 nm using a fluorescence Spectrophotometer. The inhibition (%) of the formation of AGEs was calculated according to the following equation:
Inhibition (%) of production=100−[(fluorescent intensity of test group−fluorescent intensity of blank to test group)/(fluorescent intensity of control group−fluorescent intensity of blank to control group)]×100.

[5] = system: STZ-induced diabetic rats; assay: Immunohistochemical staining for insulin in pancreatic islets of STZ-diabetic rats; format: in vivo, rat; conditions: 12 weeks treatment, FIG. 2
Experimental: as §1, §2

[6] = system: STZ-induced diabetic rats; assay: AGE-fluorescence in the pancreas of STZ-diabetic rats; format: in vivo, rat; conditions: 12 weeks treatment, FIG. 3
Experimental: as §1, with “Animals with uncertain blood glucose levels or blood glucose exceeding 600 mg/dl were excluded from the study.” left out
Minced pancreatic tissue was delipidated with chloroform and methanol (2:1,v/v) overnight. […] The amounts of AGEs in these alkali-soluble samples were determined by measuring the fluorescence at an emission wavelength of 440 nm and an excitation wavelength at 370 nm using a fluorescence Spectrophotometer. A native bovine serum albumin (BSA) preparation (1 mg/ml of 0.1 N NaOH) was used as a standard, and its fluorescence intensity was defined as one arbitrary unit (AU). The fluorescence values of samples were measured at a protein concentration of 1 mg/ml and expressed in arbitrary unit (AU) compared with a native BSA preparation. Sample protein concentrations were determined using Bradford method.

[7] = system: STZ-diabetic rats; assay: Fluorescent AGEs and CML-AGE in the descending aorta of STZ-diabetic rats; format: in vivo, rat; conditions: 12 weeks, FIG. 6 and FIG. 7
Experimental: as §1, §2

[8] = system: STZ-diabetic rats; assay: 24-hr urinary albumin excretion in STZ-diabetic rats; format: in vivo, rat; conditions: 12 weeks, P<0.01, FIG. 8
Experimental: as §1
HEM was suspended in 1% carboxymethylcellulose (CMC) before use. Aminogunidine was dissolved in water first and then added into 1% CMC before use. […] The diabetes-induced and the normal control groups consisted of 8 animals of each. The initial body weights and blood glucose levels of the diabetic animals were similar among the three groups. […]
Development of albuminuria is a cardinal manifestation of glomerular injury and a pathological factor in the progression of renal dysfunction. […] The levels of urinary albumin were quantified using a commercial assay kit (Guangzhou WhiJa Technology, Inc. Guangzhou, China), according to the manufacturer's instructions.

## N=C(N)NN [Aminoguanidine, aminoguanidine]
[1]
  Renal MDA: 8.82 ± 1.92 μM/mg protein
  Renal SOD activity: 1.78 ± 0.42 Unit/mg protein
[2]
  AGE-fluorescence in the kidney cortex: 3.4 ± 0.5 AU/mg protein
  CML-AGE in the kidney cortex: 262.8 ± 55.4 ng/mg protein
[3]; 12 weeks oral treatment
  body weight increase by the end of the experiment: 44.0 g
[3]; oral gavage daily 12 weeks, HEM 500 mg/kg, AG 50 mg/kg, mean ± SD, n=8
  Body weight (g) (after treatment): 258.6 ± 8.1 g
[4]; 12.5 mcg/ml
  Inhibition (%) of the formation of AGEs: 19.6 ± 3.6%
[4]; 25 mcg/ml
  Inhibition (%) of the formation of AGEs: 31.7 ± 3.5%
[4]; 50 mcg/ml
  Inhibition (%) of the formation of AGEs: 44.8 ± 2.9%
[4]; 100 mcg/ml
  Inhibition (%) of the formation of AGEs: 69.9 ± 3.5%
[5]
  insulin immunostaining in the pancreatic islets: no evident effect
[6]
  pancreatic level of AGEs (fluorescence): effectively lowered
[7]
  accumulation of AGEs (fluorescent AGEs and CML-AGE) in the descending aorta: effectively reduced
[8]
  reduction of 24-hr urinary albumin excretion compared with STZ-diabetic control group: 37.3%
